Laboratory results as given in US20230277449A1, “ORAL CAVITY POLYMERIC DELIVERY SYSTEMS” (YISSUM RESEARCH DEVELOPMENT COMPANY OF THE HEBREW …, priority 2020, published 2023).
Several values for one entry are separate records, joined by “and”; a condition that tells them apart may be missing. Equal values may be shown once. Read-outs that look alike come from different tables or passages of the source. Blank lines part the entries; values can stand above or below the compound they belong to.

Tests used:
[1] = pig, in vivo, iv, 1 mg/kg
[2] = Monitored vital parameters after CBD and TPH administration to the mucosa of pigs; format: in vivo, pig; details: median (lowest - highest)
Description: Israel. […] Pigs were fasted overnight before the experiments. […] They were positioned on their back.

[3] = cited from earlier work
[4] = In-vivo oral mucosal administration of CBD and TPH in mucoadhesive shell to pigs
[5] = cited from earlier work; remark: listed apart in the source
in vitro = details: female, pig, pH 7.4
[6] = Ex-vivo permeability of APO, MTP and ATN in Ussing diffusion chamber; format: in vitro ADME, pig; details: for Papp at 0.1 mM: n=3
Description: Each chamber includes a heating block for temperature control and needle valves for adjustment of carbogen gas flow for oxygenation and gas lift stirring. Buccal tissues of female pigs, ~100 kg, were used in the experiments. Pigs were exposed to anesthetic agents, antibiotics, contrast agents and sacrificed by over exposure to KC1. […] Immediately following euthanasia, buccal tissue was removed and placed in ice-cold modified Ringer’s buffer (pH 7.4). Buccal mucosa segments were trimmed to 800-1000 µm by surgical scissors and tweezers and mounted into Ussing diffusion chambers. The exposed tissue surface area was 0.5 cm^2 and buffered solutions volume in each cell was 3 ml. The system was preheated to 35° C. Modified Ringer buffer was added to the receiver compartment and simulated saliva buffer to the donor side. The tissue oxygenation and the solution mixing were performed by bubbling with carbogen gas. The system was equilibrated for 30 min followed by replacing the solutions and adding 20 µl of the test solutions to the donor side of the chamber to commence the experiment.
Solutions were freshly prepared on the days of the experiments. […] When testing the effect of organic solvents, 100 µl of the simulated saliva in the donor chamber were replaced by 100 µl of 1:1EtOH:PG solution. When testing the effect of NLF 70 µl of the simulated saliva in the donor chamber were replaced by 70 µl of NLF. […] The constituents are melted at 37° C. and mixed until a clear yellow homogenous solution is obtained.
3.1.3 Experimental protocol: 100 µl samples were taken from receiver compartment at the beginning of the experiments, at half an hour and every hour until the end of the experiments. 100 µl of fresh Ringer’s buffer solution were added each time to receiver compartment. The dilution of the concentration of tested substances in the receiver compartment was accounted for. […] All samples were stored at -20° C. pending analysis.
The analysis conditions were as follows: XTerra MS (Waters Inc.) C18 Column (3.5 µm, 2.1 mm × 100 mm), temperature 45° C., flow rate 0.2 ml/min and mobile phase with a linear gradient as detailed in Table 23.
Statistical significance was stated for p<0.05. […] Papp calculation and simulations of steady state plasma levels for in-vivo testing
Apparent permeability (Papp) is calculated by Eq. 5: […]

[7] = in vivo
[8] = Insulin release from mucoadhesive tablets in physiologic media; format: physicochemical
Procedure: Peptides or proteins stabilized or encapsulated into nanoparticles, microparticles or liposomes were mixed in CP and HPC as described above and compressed into tablets. In a typical example, insulin zinc salt powder at 1% of the solids was added to the tablet composition and compressed into tablets. Insulin was released for 10 h from the tablets when placed in physiologic media. PLGA microspheres loaded with 50% insulin prepared by precipitation of concentrated alcoholic-dichloromethane solution into an anti-solvent, heptane. Particles at 10% of the non-active agents were added to the tablet powder and compressed into tablets. Anti-inflammatory protein such as Adiponectin, antimicrobial and antiviral proteins are also considered for buccal delivery.

Compound: CN1CCc2cccc3c2C1CC1=C3C(=O)C(=O)C=C1 (centres unmarked) [APO-quinone]
- half-lives of metabolites [1]: 25.5 (±2.0) min

Compound: C=C(C)[C@@H]1CCC(C)=C[C@H]1c1c(O)cc(CCCCC)cc1O [CBD, cannabidiol]
- Diastolic blood press (mmHg) ([2]; CBD with TPH): 37 (29 - 46) mmHg
- Heart rate (beats/min) ([2]; CBD with TPH): 98 (79 - 123) beats/min
- O2 satur (%) ([2]; CBD with TPH): 99 (90 - 100) %
- Respiration rate (min^-1) ([2]; CBD with TPH): 10 (10-13) min^-1
- Systolic blood press (mmHg) ([2]; CBD with TPH): 77 (68 - 87) mmHg
- Rectal temp (°C) ([2]; CBD ~0.42 mg/kg with TPH ~0.11 mg/kg, three pigs): 37.4 (36.8 - 38.8) °C
- aqueous solubility [3]: ~ 12 µg/ml and ~ 0.04 mM
- log P [3]: ~ 6
- Css ([4]; ~0.42 mg/kg CBD, 30.0 mg/ml, 8 h exposure): not reached
- steady state volume of distribution ([5]; humans, IV administration): 30 L/kg

- Papp at 6 h (in vitro): 1.02 ×10⁻⁶ cm/s
- Papp at 6 h, 34 µg/ml (in vitro): 9.89 ×10⁻⁶ cm/s
- Papp lower at pH 5.9 than at pH 7.4 [6]: 2 fold
- Papp ([6]; female, pig, pH 7.4 with 3.33% v/v of 1:1 ethanol: propylene glycol solution, read-out: Apparent permeability (Papp)): 7.24 ×10⁻⁶ cm/s
- Papp at 0.1 mM ([6]; female, pig, simulated saliva pH 5.9, mean (±SD), read-out: Apparent permeability (Papp)): 1.11 ×10⁻⁶ cm/s
- Papp at 0.1 mM ([6]; female, pig, simulated saliva pH 7.4, standard 0.1 mM, mean (±SD), read-out: Apparent permeability (Papp)): 2.48 ×10⁻⁶ cm/s
Compound: COCCc1ccc(OCC(O)CNC(C)C)cc1 (centres unmarked) [MTP, metoprolol]

Compound: Cn1c(=O)c2[nH]cnc2n(C)c1=O [TPH, theophylline]
- CL slower than CBD [7]: ~ 50 fold
- log P [3]: ~ 0
- TPH plateau higher than the highest plasma level of CBD ([4]; considering the molar dose administered): 300 fold
- time to plateau of plasma levels (lag-time) ([4]; ~0.11 mg/kg TPH, 8.0 mg/ml, 1.58 cm^2, three pigs): 5 h
- CL ([5]; in vivo): 0.283 to 0.67 mL/min/kg

Compound: Insulin: insulin zinc salt powder at 1% of the solids in CP and HPC tablets
- duration of insulin release [8]: 10 h
